Test system: 287954-098-R-J1 tumor spheroid viability
Experiment: Anticancer human tumor 287954-098-R-J1 patient-derived Ewing sarcoma cell line growth inhibition
Conditions: spheroids with HUVEC and MSC; for IC50: curve of first compound; for viability, T/C: stronger effect = lower value
Method in brief: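 Single agents and combinations were tested on spheroids built from tumor cells plus HUVEC and hMSC, at half-log dilutions starting at or near clinical Cmax, else 10 microM; final DMSO 0.25% (v/v).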
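Also: spheroids exposed to compound for 7 days before viability readout.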
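For viability, T/C in this document: luminescent signal taken as surrogate of viable cell content; 100% = DMSO vehicle control viability and lower means growth inhibition.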

O=C(c1cc(Cc2n[nH]c(=O)c3ccccc23)ccc1F)N1CCN(C(=O)C2CC2)CC1 + CC[C@@]1(O)C(=O)OCc2c1cc1n(c2=O)Cc2cc3c(CN(C)C)c(O)ccc3nc2-1
IC50 (second compound 0.003 µM): 5240 nM | IC50 (second compound 0.00949 µM): 3840 nM | IC50 (second compound 0.03 µM): < 94.9 nM | IC50 (second compound 0.0949 µM): < 94.9 nM | IC50 (second compound 0.3 µM): < 94.9 nM | viability, T/C (second compound 0.003 µM, first compound 0.0949 µM): 93.7% | viability, T/C (second compound 0.003 µM, first compound 0.3 µM): 96.7% | viability, T/C (second compound 0.003 µM, first compound 0.949 µM): 96.2% | viability, T/C (second compound 0.003 µM, first compound 3 µM): 93.9% | viability, T/C (second compound 0.003 µM, first compound 9.49 µM): 3.33% | viability, T/C (second compound 0.003 µM, first compound 30 µM): 1.93% | viability, T/C (second compound 0.00949 µM, first compound 0.0949 µM): 92.9% | viability, T/C (second compound 0.00949 µM, first compound 0.3 µM): 95.3% | viability, T/C (second compound 0.00949 µM, first compound 0.949 µM): 82.9% | viability, T/C (second compound 0.00949 µM, first compound 3 µM): 63.2% | viability, T/C (second compound 0.00949 µM, first compound 9.49 µM): 1.84% | viability, T/C (second compound 0.00949 µM, first compound 30 µM): 1.78% | viability, T/C (second compound 0.03 µM, first compound 0.0949 µM): 2.21% | viability, T/C (second compound 0.03 µM, first compound 0.3 µM): 2.14% | viability, T/C (second compound 0.03 µM, first compound 0.949 µM): 2.31% | viability, T/C (second compound 0.03 µM, first compound 3 µM): 2.28% | viability, T/C (second compound 0.03 µM, first compound 9.49 µM): 1.82% | viability, T/C (second compound 0.03 µM, first compound 30 µM): 1.46% | viability, T/C (second compound 0.0949 µM, first compound 0.0949 µM): 2.17% | viability, T/C (second compound 0.0949 µM, first compound 0.3 µM): 1.78% | viability, T/C (second compound 0.0949 µM, first compound 0.949 µM): 1.87% | viability, T/C (second compound 0.0949 µM, first compound 3 µM): 1.93% | viability, T/C (second compound 0.0949 µM, first compound 9.49 µM): 1.76% | viability, T/C (second compound 0.0949 µM, first compound 30 µM): 1.56% | viability, T/C (second compound 0.3 µM, first compound 0.0949 µM): 1.94% | viability, T/C (second compound 0.3 µM, first compound 0.3 µM): 1.89% | viability, T/C (second compound 0.3 µM, first compound 0.949 µM): 1.84% | viability, T/C (second compound 0.3 µM, first compound 3 µM): 1.71% | viability, T/C (second compound 0.3 µM, first compound 9.49 µM): 1.55% | viability, T/C (second compound 0.3 µM, first compound 30 µM): 1.28%

COc1ccc([C@@H](O)c2cc(-c3ncnc4cc(N5CCOCC5)ccc34)c(F)cc2Cl)nn1 + CC[C@@]1(O)C(=O)OCc2c1cc1n(c2=O)Cc2cc3c(CN(C)C)c(O)ccc3nc2-1
IC50 (second compound 0.003 µM): > 10000 nM | IC50 (second compound 0.00949 µM): > 10000 nM | IC50 (second compound 0.03 µM): < 31.6 nM | IC50 (second compound 0.0949 µM): < 31.6 nM | IC50 (second compound 0.3 µM): < 31.6 nM | viability, T/C (second compound 0.003 µM, first compound 0.0316 µM): 91.5% | viability, T/C (second compound 0.003 µM, first compound 0.1 µM): 97.4% | viability, T/C (second compound 0.003 µM, first compound 0.316 µM): 95.8% | viability, T/C (second compound 0.003 µM, first compound 1 µM): 105% | viability, T/C (second compound 0.003 µM, first compound 3.16 µM): 96.5% | viability, T/C (second compound 0.003 µM, first compound 10 µM): 83.9% | viability, T/C (second compound 0.00949 µM, first compound 0.0316 µM): 94.3% | viability, T/C (second compound 0.00949 µM, first compound 0.1 µM): 94.1% | viability, T/C (second compound 0.00949 µM, first compound 0.316 µM): 100% | viability, T/C (second compound 0.00949 µM, first compound 1 µM): 92.1% | viability, T/C (second compound 0.00949 µM, first compound 3.16 µM): 93.2% | viability, T/C (second compound 0.00949 µM, first compound 10 µM): 54.9% | viability, T/C (second compound 0.03 µM, first compound 0.0316 µM): 21.7% | viability, T/C (second compound 0.03 µM, first compound 0.1 µM): 24.2% | viability, T/C (second compound 0.03 µM, first compound 0.316 µM): 11.3% | viability, T/C (second compound 0.03 µM, first compound 1 µM): 5.39% | viability, T/C (second compound 0.03 µM, first compound 3.16 µM): 0.97% | viability, T/C (second compound 0.03 µM, first compound 10 µM): 5.74% | viability, T/C (second compound 0.0949 µM, first compound 0.0316 µM): 1.23% | viability, T/C (second compound 0.0949 µM, first compound 0.1 µM): 1.03% | viability, T/C (second compound 0.0949 µM, first compound 0.316 µM): 1.21% | viability, T/C (second compound 0.0949 µM, first compound 1 µM): 0.99% | viability, T/C (second compound 0.0949 µM, first compound 3.16 µM): 0.52% | viability, T/C (second compound 0.0949 µM, first compound 10 µM): 0.59% | viability, T/C (second compound 0.3 µM, first compound 0.0316 µM): 1.41% | viability, T/C (second compound 0.3 µM, first compound 0.1 µM): 1.01% | viability, T/C (second compound 0.3 µM, first compound 0.316 µM): 1.15% | viability, T/C (second compound 0.3 µM, first compound 1 µM): 0.88% | viability, T/C (second compound 0.3 µM, first compound 3.16 µM): 0.44% | viability, T/C (second compound 0.3 µM, first compound 10 µM): 0.41%

— PubChem BioAssay AID1845194 (Molecular Pharmacology Branch, DTP, NCI, 2023)
